According to patent publication US20260234159A1, “SMALL MOLECULE TREATMENT OF FATTY LIVER DISEASE AND HCC” (SCANDIEDGE THERAPEUTICS AB, priority 2023, published 2026):
Like-named read-outs stand apart in the source and are kept apart here.

Assays:
[1] = MTT cell viability after one week steatosis (ranking of target molecules); format: cell-based, human; conditions: human, HepG2 cells (wild type); HepG2, 10 μM, one week steatosis induce media, MTT; Control 100.00
Method: (§1) HepG2 wild type cells were purchased from genome engineering company Synthego. Cells were maintained with Roswell Park Memorial Institute growth media, RPMI, 1640 (R2405, Sigma-Aldrich) and supplemented with 10% fetal bovine serum (FBS, F7524, Sigma-Aldrich), 1% penicillin-streptomycin (P/S, P4333, Sigma-Aldrich). Steatosis induction media was prepared as high glucose Dulbecco's Modified Eagle Media (DMEM, D0819, Sigma-Aldrich) with 10% FBS, 1% P/S media supplemented with 10 μg/ml insulin (I9278, Sigma-Aldrich), and 10 μM T0901317 (T2320, Sigma-Aldrich). HepG2 cells were seeded 6×10^4 cells per well for 96-well plate and 1×10^6 cells per well for 6-well plate. HepG2 cells were incubated with steatosis induce media (SM) for one week by 3 day+2 day+2 day with total three times media exchange.
(§2) HepG2 cells were seeded at 60,000 cells per well in 96 well plate. Using steatosis induce media, the cells were treated with 10 μM of target drugs for one week. The media was changed 3 times at day 0, day 3 and day 5. TAG assay was performed using MAK266-1KT SDS Triglyceride Quantification Colorimetric kit and cell viability analysis was performed using MTT assay.

HepG2 cells = experiment: Triglyceride (TAG) measurement assay, one week steatosis model; format: cell-based, human; conditions: for activity at 10 µM: Homo sapiens
Method: as §1
HepG2 cells were seeded at 6×10^4 cells per well into 96 well plate and induced steatosis for one week with 10 μM of target drugs. After steatosis induction, cells were washed with 200 μl of phosphate buffered saline (PBS) and triglyceride contents was measured by Triglyceride Assay Kit—Quantification (ab65336, Abcam) following manufacturer's instruction. Optical density (O.D) values were detected with microplate reader at 570 nm (Hidex Sense Beta Plus).
as §2

[2] = 168 h, HepG2, 10 μM, one week steatosis induce media, Control 100.00, read-out: TAG (%)
[3] = HepG2, 168 h, ratio between TAG content and cell viability, Control 100.0, read-out: TAG/cell viability

## CC(C)CCN1CCc2c(sc(NC(=O)c3cccc4ccccc34)c2C#N)C1 [PKL-B133]
[1]
  viability at 1 week, 10 µM: 69.3%
HepG2 cells; [2]
  activity at 10 µM: 28.1%
HepG2 cells; [3]
  activity at 10 µM: 40.6%

## COc1ccc(S(=O)(=O)N2CCc3c(sc(NC(=O)c4cccc5ccccc45)c3C#N)C2)cc1OC [PKL-A179]
[1]
  viability at 1 week, 10 µM: 66.5%
HepG2 cells; [2]
  activity at 10 µM: 34.7%
HepG2 cells; [3]
  activity at 10 µM: 52.2%

## N#Cc1ccc(C(=O)N2CCc3c(sc(NC(=O)c4cccc5ccccc45)c3C#N)C2)cc1 [PKL-A193]
[1]
  viability at 1 week, 10 µM: 62.3%
HepG2 cells; [2]
  activity at 10 µM: 23.4%
HepG2 cells; [3]
  activity at 10 µM: 37.6%

## C#Cc1cccc(NC(=O)CN2CCc3c(sc(NC(=O)c4cccc5ccccc45)c3C#N)C2)c1 [PKL-B170]
[1]
  viability at 1 week, 10 µM: 66%
HepG2 cells; [2]
  activity at 10 µM: 55.6%
HepG2 cells; [3]
  activity at 10 µM: 84.2%

## N#Cc1c(NC(=O)c2cccc3ccccc23)sc2c1CCN(CCn1cnc3ccccc31)C2 [PKL-B153, N-(6-(2-(1H-benzo[d]imidazol-1-yl)ethyl)-3-cyano-4,5,6,7-tetrahydrothieno[2,3c]pyridin-2-yl)-1-naphthamide]
[1]
  viability at 1 week, 10 µM: 74%
HepG2 cells; [2]
  activity at 10 µM: 34.3%
HepG2 cells; [3]
  activity at 10 µM: 46.4%

## N#Cc1c(NC(=O)c2cccc3ccccc23)sc2c1CCN(CC(=O)NC1CCOCC1)C2 [PKL-B164]
[1]
  viability at 1 week, 10 µM: 74.1%
HepG2 cells; [2]
  activity at 10 µM: 36.8%
HepG2 cells; [3]
  activity at 10 µM: 49.6%

## CCN(C)C(=O)N1CCc2c(sc(NC(=O)c3cccc4ccccc34)c2C#N)C1 [PKL-A163]
[1]
  viability at 1 week, 10 µM: 46.6%
HepG2 cells; [2]
  activity at 10 µM: 12.7%
HepG2 cells; [3]
  activity at 10 µM: 27.2%

## N#Cc1c(NC(=O)c2cccc3ccccc23)sc2c1CCN(C(=O)c1cccc(F)c1)C2 [PKL-A192]
[1]
  viability at 1 week, 10 µM: 60.1%
HepG2 cells; [2]
  activity at 10 µM: 22.9%
HepG2 cells; [3]
  activity at 10 µM: 38%

## C=CCN1CCc2c(sc(NC(=O)c3cccc4ccccc34)c2C#N)C1 [PKL-B129]
[1]
  viability at 1 week, 10 µM: 71.2%
HepG2 cells; [2]
  activity at 10 µM: 35.5%
HepG2 cells; [3]
  activity at 10 µM: 49.9%

## Cc1ccc(F)c(NC(=O)N2CCc3c(sc(NC(=O)c4cccc5ccccc45)c3C#N)C2)c1 [PKL-A160]
[1]
  viability at 1 week, 10 µM: 56.4%
HepG2 cells; [2]
  activity at 10 µM: 14.9%
HepG2 cells; [3]
  activity at 10 µM: 26.4%

## CC(=O)N1CCc2c(sc(NC(=O)c3cccc4ccccc34)c2C#N)C1 [PKL-A114]
[1]
  viability at 1 week, 10 µM: 49.4%
HepG2 cells; [2]
  activity at 10 µM: 14.1%
HepG2 cells; [3]
  activity at 10 µM: 28.6%

## Cc1ccccc1NC(=O)N1CCc2c(sc(NC(=O)c3cccc4ccccc34)c2C#N)C1 [PKL-A153]
[1]
  viability at 1 week, 10 µM: 42.5%
HepG2 cells; [2]
  activity at 10 µM: 13.2%
HepG2 cells; [3]
  activity at 10 µM: 31.2%

## CCOC(=O)CN1CCc2c(sc(NC(=O)c3cccc4ccccc34)c2C#N)C1 [PKL-A118]
[1]
  viability at 1 week, 10 µM: 91%
HepG2 cells; [2]
  activity at 10 µM: 62.1%
HepG2 cells; [3]
  activity at 10 µM: 68.2%

## N#Cc1c(NC(=O)c2cccc3ccccc23)sc2c1CCN(C(=O)N(c1ccccc1)c1ccccc1)C2 [PKL-A164]
[1]
  viability at 1 week, 10 µM: 46%
HepG2 cells; [2]
  activity at 10 µM: 17.3%
HepG2 cells; [3]
  activity at 10 µM: 37.6%

## N#Cc1c(NC(=O)c2cccc3ccccc23)sc2c1CCN(CC(=O)Nc1ccccc1)C2 [PKL-B173]
[1]
  viability at 1 week, 10 µM: 70.8%
HepG2 cells; [2]
  activity at 10 µM: 34.7%
HepG2 cells; [3]
  activity at 10 µM: 49%

## N#Cc1c(NC(=O)c2cccc3ccccc23)sc2c1CCN(C(=O)Nc1cccc3ccccc13)C2 [PKL-A161]
[1]
  viability at 1 week, 10 µM: 44.1%
HepG2 cells; [2]
  activity at 10 µM: 13.2%
HepG2 cells; [3]
  activity at 10 µM: 29.8%

## COc1ccc(C(=O)Nc2sc3ccccc3c2C#N)c2ccccc12 [PKL-A149]
[1]
  viability at 1 week, 10 µM: 50.9%
HepG2 cells; [2]
  activity at 10 µM: 30.8%
HepG2 cells; [3]
  activity at 10 µM: 60.5%

## CN(C(=O)N1CCc2c(sc(NC(=O)c3cccc4ccccc34)c2C#N)C1)c1ccccc1 [PKL-A162]
[1]
  viability at 1 week, 10 µM: 49.2%
HepG2 cells
  ratio between TAG content and cell viability: low ratio between TAG content and cell viability
HepG2 cells; [2]
  activity at 10 µM: 12.3%
HepG2 cells; [3]
  activity at 10 µM: 25.1%
HepG2 cells; ratio as printed in text with %
  TAG/cell viability: 25.1%

## N#Cc1c(NC(=O)c2cccc3ccccc23)sc2c1CCN(C(=O)Nc1ccccc1[N+](=O)[O-])C2 [PKL-A154]
[1]
  viability at 1 week, 10 µM: 46%
HepG2 cells; [2]
  activity at 10 µM: 13.9%
HepG2 cells; [3]
  activity at 10 µM: 30.3%

## N#Cc1c(NC(=O)c2cccc3ccccc23)sc2c1CCN(S(=O)(=O)c1cccc3ccccc13)C2 [PKL-A183]
[1]
  viability at 1 week, 10 µM: 72.3%
HepG2 cells; [2]
  activity at 10 µM: 48.6%
HepG2 cells; [3]
  activity at 10 µM: 67.2%

## N#Cc1c(NC(=O)c2cccc3ccccc23)sc2c1CCN(CC(=O)c1ccccc1)C2 [PKL-B130]
[1]
  viability at 1 week, 10 µM: 64.1%
HepG2 cells; [2]
  activity at 10 µM: 16.8%
HepG2 cells; [3]
  activity at 10 µM: 26.2%

## N#Cc1c(NC(=O)c2cccc3ccccc23)sc2c1CCN(C(=O)Nc1ccccc1Br)C2 [PKL-A157]
[1]
  viability at 1 week, 10 µM: 36.5%
HepG2 cells; [2]
  activity at 10 µM: 12.8%
HepG2 cells; [3]
  activity at 10 µM: 35.1%

## C=CC(=O)N1CCc2c(sc(NC(=O)c3cccc4ccccc34)c2C#N)C1 [PKL-A190]
[1]
  viability at 1 week, 10 µM: 76.2%
HepG2 cells; [2]
  activity at 10 µM: 24.2%
HepG2 cells; [3]
  activity at 10 µM: 31.8%

## COc1cccc(NC(=O)N2CCc3c(sc(NC(=O)c4cccc5ccccc45)c3C#N)C2)c1 [PKL-A151]
[1]
  viability at 1 week, 10 µM: 61.6%
HepG2 cells
  TAG content/cell viability ratio lower than JNK-IN-5A: more than 3 times
  ratio between TAG content and cell viability: low ratio between TAG content and cell viability
HepG2 cells; [2]
  activity at 10 µM: 11.5%
HepG2 cells; [3]
  activity at 10 µM: 18.7%

## N#Cc1c(NC(=O)c2cccc3ccccc23)sc2c1CCCCC2 [PKL-A56, N-(3-cyano-5,6,7,8-tetrahydro-4H-cyclohepta[b]thiophen-2-yl)-1-naphthamide]
[1]
  viability at 1 week, 10 µM: 57%
HepG2 cells; [2]
  activity at 10 µM: 35.6%
HepG2 cells; [3]
  activity at 10 µM: 62.5%
